Assay results reported in PubChem BioAssay AID1259411 (Chemical Carcinogenesis Research Information System (CCRIS), 2018).
Active and inactive are the calls of the source. No rule for the calls is given here.

System: rodent carcinogenicity bioassays, tumor incidence
Test: CCRIS carcinogenicity studies
Procedure, shortened: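 NCI-built, expert-reviewed records of carcinogenicity and related test outcomes (mutagenicity, tumor promotion/inhibition) compiled from published and report sources, historical span 1985-2011, not updated.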

## O=[As]O
Species: Mouse, Strain/Sex: C3H/10 pregnant dams/group, 25 male and 25 female offspring per group assigned at 4 wks of age, Route: Oral, Dose: 0, 42.5, 85 ppm in drinking water of dams, offspring followed for 90 wks, Tumor Site: Type of Lesion: Hepatocellular carcinoma in offspring
  carcinogen call: active; positive
Species: Mouse, Strain/Sex: C3H/Female offspring, Route: Oral, Dose: 0, 85 ppm (in drinking water of dam) in utero
  carcinogen call: inactive; negative
Species: Mouse, Strain/Sex: C3H/Female offspring, Route: Oral, Dose: 0, 85 ppm in drinking water post pubescence (PND 56) to 365 days
  carcinogen call: inactive; negative (hyperplasia only, no tumors)
Species: Mouse, Strain/Sex: C3H/Female offspring, Route: Oral, Dose: 0, 85 ppm in drinking water prior to pubescence (PND 21) to 365 days
  carcinogen call: inactive; negative (hyperplasia only, no increase in tumors)
Species: Mouse, Strain/Sex: C3H/Female offspring, Route: Oral, Dose: 0, 85 ppm in utero and in drinking water to 365 days
  carcinogen call: inactive; negative
Species: Mouse, Strain/Sex: C3H/HeNCr F344/ Male and female (25-35/Group as offspring of 10 dams per exposure level), Route: Drinking water, Dose: 0, 42.5, 85 ppm ad lib on gestation days 8-18, study duration for offspring 90 wks, Tumor Site: Type of Lesion: Male offspring: Liver: hepatocellular carcinoma (statistically significant increase in incidence and multiplicity), Adre
  carcinogen call: active; positive
Species: Mouse, Strain/Sex: C3H/Male offspring, Route: Oral, Dose: 0, 85 ppm (in drinking water of dam) in utero
  carcinogen call: inactive; negative
Species: Mouse, Strain/Sex: C3H/Male offspring, Route: Oral, Dose: 0, 85 ppm in drinking water post pubescence (PND 56) to 365 days
  carcinogen call: inactive; negative (decreased incidence of spontaneous tumors)
Species: Mouse, Strain/Sex: C3H/Male offspring, Route: Oral, Dose: 0, 85 ppm in drinking water prior to pubescence (PND 21) to 365 days
  carcinogen call: inactive; negative (decreased incidence of spontaneous tumors)
Species: Mouse, Strain/Sex: C3H/Male offspring, Route: Oral, Dose: 0, 85 ppm in utero and in drinking water to 365 days, Tumor Site: Type of Lesion: Liver: adenoma and carcinoma (30%, 0%)
  carcinogen call: active; positive

## CN(CCC=O)N=O
Species: RAT, Strain/Sex: F344/MALE, Route: SUBCUTANEOUS, Dose: 0, 6.57 MG (0.057 MMOL) IN 0.3 ML TRIOCTANOIN 3 D/WK FOR 15 WK (STUDY DURATION: 100 WK), Tumor Site: Type of Lesion: NASAL CAVITY: PAPILLOMA, LIVER: ADENOMA, LUNG: ADENOMA, Tumor Site: Type of Lesion: NASAL CAVITY: PAPILLOMA, LIVER: ADENOMA, LUNG: ADENOMA
  carcinogen call: active; positive

## C[C@]12C=CC(=O)C=C1CC[C@@H]1[C@@H]2[C@@H](O)C[C@@]2(C)[C@H]1CC[C@]2(O)C(=O)CO
Species: RAT, Strain/Sex: SPRAGUE-DAWLEY/FEMALE, Route: GAVAGE, Dose: 0, 3 MG/KG ADMINISTERED 1, 2, 4.5 OR 9 TIMES PER MO FOR 18 MO TO GIVE MEDIAN TOTAL DOSES OF 54, 108, 234, 468 MG/KG (STU, Dose: 0, 3 MG/KG ADMINISTERED 1, 2, 4.5 OR 9 TIMES PER MO FOR 18 MO TO GIVE MEDIAN TOTAL DOSES OF 54, 108, 234, 468 MG/KG (STU
  carcinogen call: inactive; negative
Species: RAT, Strain/Sex: SPRAGUE-DAWLEY/MALE, Route: ORAL, Dose: 0, 40 UG/ML IN DRINKING WATER FOR AN AVERAGE DAILY DOSE OF 368 UG/KG FOR 104 WK (STUDY DURATION: 104 WK), Tumor Site: Type of Lesion: LIVER: HEPATOCELLULAR ADENOMA OR CARCINOMA
  carcinogen call: active; positive

## O=[N+]([O-])c1cc2ccc3cccc4ccc(c1)c2c34
Species: RAT, Strain/Sex: STRAIN-CD/FEMALE, Route: INJECTION, Dose: 0, 0.1 ML IN 20.3 UMOL/ML DMSO INJECTED INTO MAMMARY TISSUE OF THE 3 LEFT THORACIC NIPPLES FOLLOWED THE NEXT D BY SIMILA
  carcinogen call: inactive; negative
Species: RAT, Strain/Sex: STRAIN-CD/FEMALE, Route: INJECTION, Dose: 0, 0.1 ML OF A 20.3 UMOL/ML SOLUTION IN DMSO INJECTED INTO MAMMARY TISSUE UNDERLYING 3 LEFT THORACIC NIPPLES THE FOLLOWI
  carcinogen call: inactive; negative
Species: RAT, Strain/Sex: STRAIN-CD/FEMALE, Route: INTRAPERITONEAL, Dose: 0, 67 UMOL/KG BW IN DMSO 3/WK FOR 4 WK (STUDY DURATION: 61 WK), Tumor Site: Type of Lesion: HEMATOPOIETIC SYSTEM: LEUKEMIA, LYMPHOMA
  carcinogen call: active; positive
Species: RAT, Strain/Sex: STRAIN-CD/FEMALE, Route: INTRAPERITONEAL, Dose: 0, 67 UMOL/KG/BW IN 25 UMOL/ML DMSO 3/WK FOR 4 WK (TOTAL DOSE: 0; 119 UMOL) ADMINISTERED TO WEANLING RATS (STUDY DURATIO, Dose: 0, 67 UMOL/KG/BW IN 25 UMOL/ML DMSO 3/WK FOR 4 WK (TOTAL DOSE: 0; 119 UMOL) ADMINISTERED TO WEANLING RATS (STUDY DURATIO, Tumor Site: Type of Lesion: HEMATOPOIETIC SYSTEM: LEUKEMIA OR LYMPHOMA
  carcinogen call: active; positive

## N#[N+]c1ccc(O)cc1
Species: MOUSE, Strain/Sex: SWISS/FEMALE, Route: SUBCUTANEOUS, Dose: 0, 2 UG 1/WK FOR 36 WK (STUDY DURATION: 120 WK), Tumor Site: Type of Lesion: SUBCUTANEOUS TISSUE: TUMOR
  carcinogen call: active; positive
Species: MOUSE, Strain/Sex: SWISS/FEMALE, Route: SUBCUTANEOUS, Dose: 0, 10 UG 1/WK FOR 2 WK (STUDY DURATION: 130 WK)
  carcinogen call: inactive; negative
Species: MOUSE, Strain/Sex: SWISS/MALE, Route: SUBCUTANEOUS, Dose: 0, 2 UG 1/WK FOR 36 WK (STUDY DURATION: 110 WK), Tumor Site: Type of Lesion: SUBCUTANEOUS TISSUE: TUMOR
  carcinogen call: active; positive
Species: MOUSE, Strain/Sex: SWISS/MALE, Route: SUBCUTANEOUS, Dose: 0, 10 UG 1/WK FOR 2 WK (STUDY DURATION: 130 WK)
  carcinogen call: inactive; negative

## O=S(=O)([O-])[O-].[O]=[V+2]
Species: MOUSE, Strain/Sex: SWISS/FEMALE, Route: ORAL, Dose: 0, 5 PPM IN DRINKING WATER FOR DURATION OF STUDY (STUDY DURATION: LIFE SPAN)
  carcinogen call: inactive; negative
Species: MOUSE, Strain/Sex: SWISS/MALE, Route: ORAL, Dose: 0, 5 PPM IN DRINKING WATER FOR DURATION OF STUDY (STUDY DURATION: LIFE SPAN)
  carcinogen call: inactive; negative

## CN(CC(=O)O)N=O
Species: MOUSE, Route: INTRAPERITONEAL, Tumor Site: Type of Lesion: LIVER
  carcinogen call: active; positive
Species: MOUSE, Route: ORAL, Tumor Site: Type of Lesion: NASAL CAVITY
  carcinogen call: active; positive
Species: RAT, Route: ORAL, Tumor Site: Type of Lesion: ESOPHAGUS
  carcinogen call: active; positive

## N#CN=C(N)N
Species: RAT, Strain/Sex: F344/FEMALE, Route: ORAL, Dose: 0, 2.5, 5% IN DIET FOR 104 WK (STUDY DURATION: 113 WK), Dose: 0, 2.5, 5% IN DIET FOR 104 WK (STUDY DURATION: 113 WK)
  carcinogen call: inactive; negative
Species: RAT, Strain/Sex: F344/MALE, Route: ORAL, Dose: 0, 2.5, 5% IN DIET FOR 104 WK (STUDY DURATION: 113 WK), Dose: 0, 2.5, 5% IN DIET FOR 104 WK (STUDY DURATION: 113 WK)
  carcinogen call: inactive; negative

## Nc1cc2c3ccccc3ccc2c2ccccc12
Species: MOUSE, Strain/Sex: SWISS/FEMALE, Route: INTRAPERITONEAL, Dose: 0, 100 NMOL (TOTAL DOSE) 1/7, 2/7 AND 4/7 ADMINISTERED ON DAYS 1, 8 AND 15 OF LIFE RESPECTIVELY (STUDY DURATION: 32 WK)
  carcinogen call: inactive; negative
Species: MOUSE, Strain/Sex: SWISS/MALE, Route: INTRAPERITONEAL, Dose: 0, 100 NMOL (TOTAL DOSE) 1/7, 2/7 AND 4/7 ADMINISTERED ON DAYS 1, 8 AND 15 OF LIFE RESPECTIVELY (STUDY DURATION: 32 WK)
  carcinogen call: inactive; negative

## O=S(=O)(O)NC1CCCCC1
Species: MONKEY, Strain/Sex: CYNOMOLGUS, RHESUS, AFRICAN GREEN/MALE, FEMALE, Route: ORAL, Dose: 0, 100, 500 MG/KG IN DIET FOR 24 YR (STUDY DURATION: 24 YR), Dose: 0, 100, 500 MG/KG IN DIET FOR 24 YR (STUDY DURATION: 24 YR)
  carcinogen call: inactive; negative
Species: RAT, Strain/Sex: ALBINO/MALE,FEMALE, Route: SUBCUTANEOUS, Dose: 5, 15% IN AQ SOLN 3/WK FOR 85 OR 107 WK, Tumor Site: Type of Lesion: INJECTION SITE: FIBROSARCOMA
  carcinogen call: active; positive
Species: RAT, Strain/Sex: SPRAGUE-DAWLEY/MALE,FEMALE, Route: ORAL, Dose: 2, 5% IN DIET PRENATALLY AND FOR LIFE
  carcinogen call: inactive; negative
